# Source: US8399683B2 (TetraLogic Pharmaceuticals, priority 2008, dated 2013)
# What was measured:
# cIAP-1 BIR-3 = cIAP-1 BIR-3 (Homo sapiens, UniProt Q13490); assay: Fluorescence polarization binding affinity to cIAP-1 BIR-3 (competition with AbuRPF-K(5-Fam)-NH2); conditions: 5 nM labeled peptide, 40 nM BIR3, 15 min at RT, pH 7.5; reported as ranges; read-out: KD (c-IAP-1 BIR3)
# Experimental: (§1) The binding affinities of the compounds are reported as a KD value (μM). Briefly, various concentrations of test peptides were mixed with 5 nM of the fluorescently labeled peptide (i.e., a mutated N-terminal Smac peptide—AbuRPF-K(5-Fam)-NH2) and 40 nM of the respective IAP BIR3 for 15 min at RT in […] of 0.1M Potassium Phosphate buffer, pH 7.5 containing […] bovine g-globulin. Following incubation, the polarization values (mP) were measured on a Victor2V (available from PerkinElmer Life Sciences) using a 485 nm excitation filter and a 520 nm emission filter. The reported KD values are supplied as ranges (A=<0.1 μM, B=0.1 μM to 1 μM, C>1 μM to 10 μM, D=>10 μM).
# SK-OV-3 cells = assay: Growth inhibition of ovarian cancer cell line SK-OV-3 (MTT assay, cell survival); type: cell-based; conditions: Homo sapiens, drug concentration that results in 50% cell survival, 72 hrs incubation, reported as ranges
# Experimental: Compounds of the invention also were tested for their ability to inhibit the growth of an ovarian cancer cell line, SK-OV-3. A known assay previously used for measuring cell growth (as described in Hansen, M. B., Nielsen, S. E., and Berg, K. (1989) J. Immunol. Methods 119, 203-210 and incorporated herein by reference in its entirety) was used. Briefly, SK-OV-3 cells are seeded in 96-well plates in McCoy's medium containing 10% fetal bovine serum albumin (5,000 per well) and incubated overnight at 37° C. The next day, test compounds are added at various concentrations (0.003-10 μM) and the plates are incubated at 37° C. for an additional 72 hrs. This incubation time was considered to be optimal for measuring inhibitory effects of the different compounds tested. 50 microliters of 5 mg/mL MTT reagent is added to each well and the plates are incubated at 37° C. for another three (3) hours. At the end of the three (3) hour incubation period, 50 microliters of DMSO is added to each well to dissolve cells and the optical density (OD) of the wells is measured with a microplate reader (Victor^2 1420, Wallac, Finland) at 535 nm. Cell survival (CS) was calculated using the following equation: CS=(OD treated well/mean OD control wells)×100%.
# The CC50 (reported in the following tables), is defined as the drug concentration that results in 50% cell survival (CS), and is derived by calculating the point where the dose-response curve crosses the 50% CS point using GraphPad Prism. The reported CC50 values are supplied as ranges (A=<0.1 μM, B=0.1 μM to 1 μM, C=>1 μM to 10 μM, D=>10 μM).
# XIAP BIR-3 = molecular target: T1, XIAP BIR-3 (Homo sapiens, UniProt P98170); assay: Fluorescence polarization binding affinity to XIAP BIR-3 (competition with AbuRPF-K(5-Fam)-NH2); conditions: 5 nM labeled peptide, 40 nM BIR3, 15 min at RT, pH 7.5; reported as ranges
# T1 construct: 40 nM of the respective IAP BIR3
# Experimental: as §1
# T1 sequence (P98170 241-356 limits assumed): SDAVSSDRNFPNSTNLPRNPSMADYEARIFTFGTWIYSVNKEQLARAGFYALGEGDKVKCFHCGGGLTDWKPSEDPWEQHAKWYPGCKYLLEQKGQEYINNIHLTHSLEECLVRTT
# Chain of cIAP-1 BIR-3 (Q13490 266-352 limits assumed): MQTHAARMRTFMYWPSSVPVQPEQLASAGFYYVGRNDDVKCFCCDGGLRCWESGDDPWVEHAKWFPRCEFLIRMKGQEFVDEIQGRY
SMILES,Kd (cIAP-1 BIR-3) [nM],Kd (XIAP BIR-3) [nM],CC50 (SK-OV-3 cells) [nM]
"CN[C@@H](C)C(=O)N[C@H](C(=O)N1C[C@@H](O)[C@H]2NC[C@@H](c3c[nH]c4cc(F)ccc34)[C@H]21)C1CCCCC1 [Example 86, N-{1-Cyclohexyl-2-[6R-(6-fluoro-1H-indol-3-yl)-3-hydroxy-hexahydro-pyrrolo[3,2-b]pyrrol-1-yl]-2-oxo-ethyl}-2-methylamino-propionamide]",100 to 1000,> 10000,> 10000
CN[C@@H](C)C(=O)N[C@@H](COC)C(=O)N1CC[C@@H]2[C@H]1[C@@H](c1c[nH]c3cc(F)ccc13)CN2Cc1ccccc1 [Example 102],100 to 1000,1000 to 10000,1000 to 10000
"CN[C@@H](C)C(=O)N[C@H](C(=O)N1CC[C@@H]2[C@H]1CCN2C(=O)OCc1ccccc1)C1CCCCC1 [Example 108, 4-[2-Cyclohexyl-2-(2-methylamino-propionylamino)-acetyl]hexahydro-pyrrolo[3,2-b]pyrrole-1-carboxylic acid benzyl ester]",< 100,1000 to 10000,100 to 1000
"CN[C@@H](C)C(=O)N[C@H](C(=O)N1CC[C@@H]2[C@H]1[C@@H](c1c[nH]c3cc(F)ccc13)CN2S(C)(=O)=O)C(C)C [Example 48, N-{1-[6-(6-Fluoro-1H-indol-3-yl)-4-methanesulfonyl-hexahydro-pyrrolo[3,2-b]pyrrole-1-carbonyl]-2-methyl-propyl}-2-methylamino-propionamide]",< 100,< 100,< 100
CN[C@@H](C)C(=O)N[C@H](C(=O)N1CC[C@H]2NC[C@@H](c3c[nH]c4ccccc34)[C@H]21)[C@@H](C)OC [Example 89],100 to 1000,> 10000,> 10000
CN[C@@H](C)C(=O)N[C@H](C(=O)N1CC[C@H]2NC[C@H](c3cn(Cc4ccccc4)c4cc(F)ccc34)[C@H]21)C1CCCCC1 [Example 91],< 100,< 100,100 to 1000
CN[C@@H](C)C(=O)N[C@H](C(=O)N1CC[C@@H]2[C@H]1[C@@H](c1c[nH]c3cc(F)ccc13)CN2S(C)(=O)=O)C(C)O (stereo partly drawn) [Example 56],< 100,< 100,< 100
"CN[C@@H](C)C(=O)N[C@@H](COC)C(=O)N1CC[C@@H]2[C@H]1[C@@H](c1c[nH]c3cc(F)ccc13)CN2c1ncccn1 [Example 81, N-{2-[6-(6-Fluoro-1H-indol-3-yl)-4-pyrimidin-2-yl-hexahydro-pyrrolo[3,2-b]pyrrol-1-yl]-1-methoxymethyl-2-oxo-ethyl}-2-methylamino-propionamide]",< 100,< 100,< 100
CN[C@@H](C)C(=O)N[C@@H](COC)C(=O)N1CC[C@@H]2[C@H]1[C@@H](c1c[nH]c3cc(F)ccc13)CN2C1CCCC1 [Example 13],100 to 1000,1000 to 10000,1000 to 10000
CN[C@@H](C)C(=O)N[C@H](C(=O)N1CC[C@@H]2[C@H]1[C@@H](c1c[nH]c3cc(F)ccc13)CN2C1CCCC1)C(C)(C)C [Example 4],< 100,< 100,< 100
CN[C@@H](C)C(=O)N[C@H](C(=O)N1CC[C@@H]2[C@H]1[C@H](c1c[nH]c3cc(F)ccc13)CN2C(C)=O)C1CCCCC1 [Example 96],100 to 1000,1000 to 10000,1000 to 10000
"CN[C@@H](C)C(=O)N[C@H](C(=O)N1CC[C@@H]2[C@H]1[C@@H](c1c[nH]c3cc(F)ccc13)CN2Cc1ccncc1)C1CCCCC1 [Example 26, N-{1-Cyclohexyl-2-[6-(6-fluoro-1H-indol-3-yl)-4-pyridin-4-ylmethyl-hexahydro-pyrrolo[3,2-b]pyrrol-1-yl]-2-oxo-ethyl}-2-methylamino-propionamide]",< 100,< 100,< 100
"CN[C@@H](C)C(=O)N[C@H](C(=O)N1CC[C@@H]2[C@H]1[C@@H](c1c[nH]c3cc(F)ccc13)CN2C1CCNCC1)C1CCCCC1 [Example 21, N-{1-Cyclohexyl-2-[6-(6-fluoro-1H-indol-3-yl)-4-piperidin-4-yl-hexahydro-pyrrolo[3,2-b]pyrrol-1-yl]-2-oxo-ethyl}-2-methylamino-propionamide]",< 100,100 to 1000,> 10000
"CN[C@@H](C)C(=O)N[C@H](C(=O)N1CC[C@H]2NC[C@H](c3c[nH]c4cc(F)ccc34)[C@H]21)C1CCCCC1 [Example 32, N-{1-Cyclohexyl-2-[6-(6-fluoro-1H-indol-3-yl)-hexahydro-pyrrolo[3,2-b]pyrrol-1-yl]-2-oxo-ethyl}-2-methylamino-propionamide]",< 100,< 100,< 100

# The next lines start with results.
Kd (cIAP-1 BIR-3) [nM],Kd (XIAP BIR-3) [nM],SMILES,CC50 (SK-OV-3 cells) [nM]
< 100,< 100,"CC[C@H](NC(=O)[C@H](C)NC)C(=O)N1CC[C@@H]2[C@H]1[C@@H](c1c[nH]c3cc(F)ccc13)CN2S(C)(=O)=O [Example 46, N-{1-[6-(6-Fluoro-1H-indol-3-yl)-4-methanesulfonyl-hexahydro-pyrrolo[3,2-b]pyrrole-1-carbonyl]-propyl}-2-methylamino-propionamide]",< 100
< 100,< 100,"CN[C@@H](C)C(=O)N[C@H](C(=O)N1CC[C@@H]2[C@H]1[C@@H](c1c[nH]c3cc(F)ccc13)CN2Cc1cccnc1)C1CCCCC1 [Example 25, N-{1-Cyclohexyl-2-[6-(6-fluoro-1H-indol-3-yl)-4-pyridin-3-ylmethyl-hexahydro-pyrrolo[3,2-b]pyrrol-1-yl]-2-oxo-ethyl}-2-methylamino-propionamide]",100 to 1000
< 100,< 100,"CN[C@@H](C)C(=O)N[C@H](C(=O)N1CC[C@@H]2[C@H]1[C@@H](c1c[nH]c3cc(F)ccc13)CN2c1ncccn1)C(C)(C)C [Example 79, N-{1-[6-(6-Fluoro-1H-indol-3-yl)-4-pyrimidin-2-yl-hexahydro-pyrrolo[3,2-b]pyrrole-1-carbonyl]-2,2-dimethyl-propyl}-2-methylamino-propionamide]",< 100
< 100,< 100,"CN[C@@H](C)C(=O)N[C@H](C(=O)N1CC[C@@H]2[C@H]1[C@@H](c1c[nH]c3cc(F)ccc13)CN2C(=O)Cc1ccccc1)C1CCCCC1 [Example 39, N-{1-Cyclohexyl-2-[6-(6-fluoro-1H-indol-3-yl)-4-phenylacetyl-hexahydro-pyrrolo[3,2-b]pyrrol-1-yl]-2-oxo-ethyl}-2-methylamino-propionamide]",< 100
< 100,< 100,"CN[C@@H](C)C(=O)N[C@@H](COC)C(=O)N1CC[C@H]2NC[C@H](c3c[nH]c4cc(F)ccc34)[C@H]21 [Example 34, N-{2-[6-(6-Fluoro-1H-indol-3-yl)-hexahydro-pyrrolo[3,2-b]pyrrol-1-yl]-1-methoxymethyl-2-oxo-ethyl}-2-methylamino-propionamide]",1000 to 10000
< 100,100 to 1000,"CN[C@@H](C)C(=O)N[C@H](C(=O)N1CC[C@H]2NC[C@H](c3c[nH]c4cc(F)ccc34)[C@H]21)[C@@H](C)O [Example 28, N-{1-[6-(6-Fluoro-1H-indol-3-yl)-hexahydro-pyrrolo[3,2-b]pyrrole-1-carbonyl]-2-hydroxy-propyl}-2-methylamino-propionamide]",1000 to 10000
< 100,< 100,CN[C@@H](C)C(=O)N[C@H](C(=O)N1CC[C@@H]2[C@H]1[C@@H](c1c[nH]c3cc(F)ccc13)CN2C(=O)OCc1ccccc1)C1CCCCC1 [Example 99],< 100
< 100,< 100,"CN[C@@H](C)C(=O)N[C@H](C(=O)N1CC[C@@H]2[C@H]1[C@@H](c1c[nH]c3cc(F)ccc13)CN2S(C)(=O)=O)C1CCCCC1 [Example 43, N-{1-Cyclohexyl-2-[6-(6-fluoro-1H-indol-3-yl)-4-methanesulfonyl-hexahydro-pyrrolo[3,2-b]pyrrol-1-yl]-2-oxo-ethyl}-2-methylamino-propionamide]",< 100
